Reference: patent US20240124409A1, “GUAIANOLIDE SESQUITERPENE LACTONE DERIVATIVES AND PHARMACEUTICAL USE THEREOF” (NANJING UNIVERSITY OF CHINESE MEDICINE, priority 2021, published 2024)

Assays:
[1] = test system: acute gouty arthritis model rats induced by MSU; test: Rat acute gouty arthritis model induced by MSU; assay type: in vivo, SD rats
Procedure: During the adaptive feeding period, 2% pentobarbital sodium was used to anesthetize the rats by intraperitoneal injection at a dose of 0.25 mL/100 g. The circumferences of the ankle joints of the parent left hind limbs of the rats were measured. After the adaptive feeding, 2% pentobarbital sodium was used for intraperitoneal injection anesthesia at a dose of 0.25 mL/100 g. After the anesthesia, 8 rats were randomly selected as the blank group, and normal saline was injected into the joint cavity of their left hind limbs. The other rats were injected with 200 μL sodium urate into the joint cavity of the left hind limbs. 6 h after the model establishment, the rats were anesthetized with pentobarbital sodium, and the joint circumference was measured with a 2 mm wide paper strip. According to the joint swelling ratio, the rats were divided into seven groups.
Administration was carried out once at 10.5 h and 22.5 h after the model establishment, respectively.
Joint swelling is one of the main characteristics of acute gouty arthritis model rats induced by MSU. Before the model establishment, and at 6 h, 12 h and 24 h after the model establishment, the circumferences of the ankle joints of the left hind limbs were measured respectively, and the joint swelling ratios were calculated. The circumferences at 0.5 mm below the ankle joints of the left hind feet of rats in each group were measured with a 2 mm wide paper strip and a ruler, the measurement was repeated twice, and the average value was taken to calculate the joint swelling ratio.
Joint swelling ratio=(joint circumference at test time point−initial joint circumference)/initial joint circumference

[2] = test system: mouse sepsis model; test: Mouse sepsis model (LPS), Q-PCR of inflammatory factors; assay type: in vivo, C57BL/6 mice; set-up: key: relative mRNA by 2^−ΔΔCt, normalized to Gapdh; settings: 12 μmol/kg i.g.
Description: The mice were randomly divided into 8 groups, one of which was randomly selected as the normal group, and the other 7 groups were the model group, the parent drug 1 (0.4 and 4 μmol/kg), the hydrochloride 22 (4 μmol/kg), the fumarate 23 (0.4 and 4 μmol/kg) and dexamethasone (Dex, 12 μmol/kg) groups, respectively, with 6 mice in each group. 5 days before model establishment, the parent drug 1 (0.4 and 4 μmol/kg), the hydrochloride 22 (4 μmol/kg), the fumarate 23 (0.4 and 4 μmol/kg) and Dex (12 μmol/kg) were administered intragastrically. The mice in the normal group and model group were administered intragastrically the same volume of the solvent 0.5% CMC-Na. LPS (10 mg/kg) was injected intraperitoneally 1 hour after administration on the last day to establish a mouse sepsis model.
At 6 h after intraperitoneal injection of LPS, the mice were sacrificed by cervical dislocation, and the abdominal cavity was opened. The lungs, livers and kidneys were taken out, and rinsed twice with pre-cooled PBS. The lung tissues, liver left lobe tissues and kidney tissues of the mice were cut, and fixed with 4% paraformaldehyde for 24-48 h. The remaining tissues were frozen at −70° Cfor subsequent use.
20 mg of kidney, lung and liver tissues were accurately weighed, rinsed with pre-cooled PBS solution, cut into small pieces by ophthalmic surgical scissors, and put into a glass homogenizer, into which was added 1 mL Trizol reagent for grinding to prepare tissue homogenate. Subsequently, the homogenate was transferred into a 1.5 mL EP tube without RNase and lysed on ice for 10 min. 200 μL chloroform was added, and the mixture was shaken violently, stood on ice for 3-5 min, and centrifuged at 12000 rpm and 4° C. for 15 min. The supernatant was aspirated carefully into a new 1.5 mL EP tube without RNase, into which was added the same volume of pre-cooled isopropanol, stood on an ice bath for 30 min, centrifuged at 12000 rpm and 4° C. for 10 min, and the supernatant was discarded. 75% ethanol-DEPC solution was added to wash the precipitate, and the total RNA was obtained by inversion and air drying on flat paper. Subsequently, 10 μL of DEPC treated water was added for dissolution. 1 μL of the total RNA solution was taken, and diluted to 100 times, the OD values of which at 260 nm and 280 nm were measured with a full wavelength microplate reader. If the ratio of OD260/OD280 is between 1.8 and 2.0, it is said that the extracted RNA has a high purity, i.e., it can be used in subsequent experiments.
Subsequent experiments were carried out with 20 μL of a reverse transcription reaction system according to the method described in the kit instructions:
Subsequent experiments were carried out with 20 μL of a reaction system according to the method described in the kit instructions:
The above reagents were added into a micro-reaction tube, sealed with a sealing membrane, and placed in a Q-PCR instrument. The parameters were set according to the following reaction conditions to carry out the amplification experiment. The reaction conditions were as follows:
The threshold cycle (Ct) value of each group was recorded. Calculating and analyzing were carried out by the 2^−ΔΔCt method (the expression level of the control gene Gapdh was set to 1 to correct the expression level of the target gene).

[3] = test system: mouse acute lung injury model; test: Mouse acute lung injury model (LPS), ELISA; assay type: in vivo, C57BL/6 mice; settings: title: serum (text b290: lung tissues), 12 μmol/kg
Procedure: In addition to the normal group injected intragastrically with PBS, other mice were injected intraperitoneally with LPS (7.5 mg/kg) to establish acute lung injury models. Three days before model establishment, the parent drug 1 (0.4 and 4 μmol/kg), the hydrochloride 22 (0.4 and 4 μmol/kg), the fumarate 23 (0.4 and 4 μmol/kg) and the positive drug Dex (12 μmol/kg) were administered intragastrically in advance, and LPS (7.5 mg/kg) was injected intraperitoneally half an hour after administration on the third day.
abdominal cavity was opened. The lungs were taken out, and rinsed twice with pre-cooled PBS. […] The remaining tissues were frozen at −70° C. for subsequent use.
20 mg of lung tissues were accurately weighed, rinsed with pre-cooled PBS solution, cut into small pieces by ophthalmic surgical scissors, and put into a glass homogenizer, into which was added 180 μL PBS (containing 1 mM PMSF). The mixture was homogenized at 60 HZ for 180 s, and centrifuged at 3000 rpm/min at 4° C. for 20 min. 1 μL supernatant was taken, the protein concentration of which was measured with Nanodrop and leveled, and could be used for subsequent experiments.

[4] = Table 12, title 'in lung' (text b281: liver)

Question: `COc1cc2c(c(OC)c1OC)-c1ccc(OC)c(=O)cc1[C@@H](NC(C)=O)CC2` [colchicine] was tested. Which joint swelling ratio ([1]; 6 h after model establishment (before dosing), 0.5 mg/kg i.g.) did it give?
Answer: 16.15 ± 1.37

Question: And the joint swelling ratio ([1]; 12 h after model establishment, 0.5 mg/kg i.g.)?
Answer: 29.10 ± 3.17

Question: What about the joint swelling ratio ([1]; 24 h after model establishment, 0.5 mg/kg i.g.) of the same compound?
Answer: 23.28 ± 2.14

Question: How did the “Il1 mRNA expression” value [2, 4] turn out when `C[C@@H]1C[C@H]2[C@@H]3CCC4=CC(=O)C=C[C@]4(C)[C@@]3(F)[C@@H](O)C[C@]2(C)[C@@]1(O)C(=O)CO` [Dex, dexamethasone, reference compound] was run?
Answer: 7.54 ± 0.70

Question: What about the “Il6 mRNA expression” value [2, 4] of the same compound?
Answer: 4.27 ± 1.33

Question: And the “Tnf mRNA expression” value [2, 4]?
Answer: 7.04 ± 0.77

Question: What about the “Il1 mRNA expression” value ([2]; kidney) of the same compound?
Answer: 6.05 ± 1.03

Question: What about the “Il6 mRNA expression” value ([2]; kidney) of the same compound?
Answer: 5.76 ± 0.72

Question: What about the “Tnf mRNA expression” value ([2]; kidney) of the same compound?
Answer: 6.62 ± 0.68

Question: What about the “Il1 mRNA expression” value ([2]; lung) of the same compound?
Answer: 7.20 ± 0.36

Question: And the “Il6 mRNA expression” value ([2]; lung)?
Answer: 9.88 ± 0.80

Question: And the “Tnf mRNA expression” value ([2]; lung)?
Answer: 8.99 ± 0.76

Question: And the IL-1β [3]?
Answer: 1873.00 ± 86.52 pg/mL

Question: And the IL-6 [3]?
Answer: 1423.00 ± 168.40 pg/mL

Question: `C[C@]12C=CC(=O)C=C1CC[C@@H]1[C@@H]2[C@@H](O)C[C@@]2(C)[C@H]1CC[C@]2(O)C(=O)CO` [prednisolone] was tested. Which joint swelling ratio ([1]; 6 h after model establishment (before dosing), 3.125 mg/kg i.g.) did it give?
Answer: 15.78 ± 1.22

Question: What about the joint swelling ratio ([1]; 12 h after model establishment, 3.125 mg/kg i.g.) of the same compound?
Answer: 25.43 ± 2.03

Question: What about the joint swelling ratio ([1]; 24 h after model establishment, 3.125 mg/kg i.g.) of the same compound?
Answer: 18.48 ± 1.66
